Earlier results on one molecule are cited in patent publication US20030109508A1, “Methods for treating dry eye” (Alcon, Inc., priority 2001, published 2003).

For the series, the system named is human conjunctival epithelial cells. The conditions noted are these: background statement, no data given.

Structures are written as SMILES.

For the molecule `CCCCC[C@H](O)/C=C/C=C\C/C=C\C/C=C\CCCC(=O)O` [15-HETE], the “secretion of mucin-1 (MUC-1)” value is listed as “increase the secretion of mucin-1 (MUC-1)”.
